{"source": "paper PMC6320914", "about": "(Pharmaceutics, 2018)", "key": {"[1]": {"molecular_target": "T1, GnRH-RI expressed on human prostate cancer (Homo sapiens, UniProt P30968)", "T1 construct": "Tissue samples of human prostate cancer cells were obtained from a patient at the time of initial surgical treatment; from tissue; host or cells: human prostate cancer surgical specimen, cell membrane homogenate", "T1 sequence (P30968 1-328)": "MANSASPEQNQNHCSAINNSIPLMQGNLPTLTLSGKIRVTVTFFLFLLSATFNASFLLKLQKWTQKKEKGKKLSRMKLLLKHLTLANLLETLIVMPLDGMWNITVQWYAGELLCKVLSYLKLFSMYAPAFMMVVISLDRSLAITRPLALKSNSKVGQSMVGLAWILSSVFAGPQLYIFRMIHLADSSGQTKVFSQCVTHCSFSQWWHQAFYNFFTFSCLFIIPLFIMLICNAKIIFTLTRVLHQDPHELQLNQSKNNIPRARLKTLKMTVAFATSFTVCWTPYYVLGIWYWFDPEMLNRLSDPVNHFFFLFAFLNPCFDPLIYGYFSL", "assay": "Radioligand competition with [125I]-triptorelin, human prostate cancer membranes", "format": "binding", "conditions": "membrane fractions of human prostate cancer specimens, Figure 5", "experimental": "Ligand competition assays with radiolabeled triptorelin were performed to evaluate the binding affinity of K2 and 10 to GnRH-RI expressed on human pituitary and human prostate cancer cells as reported earlier. Tissue samples of human prostate cancer cells were obtained from a patient at the time of initial surgical treatment and normal human pituitary tissue (anterior lobe) derived by autopsy. All subjects gave their informed consent for inclusion before they participated in the study. The collection and the use of these specimens for our studies were conducted in accordance with the Declaration of Helsinki and approved by the local Institutional Ethics Committee (UD REC/IEC 4831-2017). To study the binding affinity of the compounds, cell membrane homogenates were prepared as previously described. Apart from that, triptorelin was radioiodinated using the chloramine-T method, followed by purification by RP-HPLC [34, 40, 41, 44]. To determine the binding affinities of the nonradio-labeled GnRH-III bioconjugates to GnRH-RI, the displacement of [^125I]-GnRH-I-[^6D-Trp] was studied by an in vitro ligand competition assay. […] To determine the protein concentration by the method of Bradford, a Bio-Rad protein assay kit (Bio-Rad Laboratories, USA) was used. The LIGAND-PC computerized curve-fitting program of Munson and Rodbard was used to determine the receptor binding characteristics and IC50 values."}, "[2]": {"molecular_target": "T1, GnRH-RI expressed on human prostate cancer", "parameters": "method as in PMID 10647698, PMID 20859992", "conditions": "concentrations up to 1 µM; cited from earlier work"}, "[3]": {"tested_on": "MDA-MB-231 human breast cancer cells", "format": "cell-based", "conditions": "24 h treatment in serum-free medium (0.068–150 µM), then 48 h in complete medium; alamarBlue fluorescence; mean ± SE, performed twice, four parallels", "experimental": "(§1) Dulbecco’s Modified Eagle Medium (DMEM, Lonza, Basel, Switzerland), supplemented with 10% (v/v) Fetal Bovine Serum (FBS, Lonza), L-glutamine (2 mM, Lonza), non-essential amino acids (NEAA, Sigma-Aldrich Kft), sodium pyruvate (1 mM, Lonza) and Penicillin-Streptomycin (Lonza) was used to culture MCF-7 human breast adenocarcinoma cells (ATCC:HTB-22). HT-29 human colon adenocarcinoma cells (ATCC:HTB-38) were maintained in RPMI-1640 (Lonza), supplied with 10% FBS, L-glutamine and Penicillin-Streptomycin. MDA-MB-231 breast adenocarcinoma cells were cultured in DMEM (Lonza), supplemented with 10% FBS and Penicillin-Streptomycin. Cells were maintained in plastic culture dishes at 37 °C with a humidified atmosphere containing 5% CO2/95% air.\n(§2) 5 × 10^3 cells per well were seeded to 96-well plates (Sarstedt, Nümbrecht, Germany), in a complete cell medium. After 24 h, the cells were treated with bioconjugates in a serum-free medium (concentration range 0.068–150 µM, control wells were treated with a serum-free medium). On the next day, cells were washed two times with a serum-free medium and incubated in a complete medium for 48 h. The cell viability was determined using alamarBlue reagent® (ThermoFisher Scientific) by following the manufacturer’s instructions. A Synergy H4 multi-mode microplate reader (BioTek, Winooski, VT, USA) was used for fluorescence detection (λEx = 570 and at λEM = 620 nm). Experiments were performed twice, using four parallels per concentration. Cell viabilities (and IC50 values) were calculated with Origin Pro8 (OriginLab Corp., Northampton, MA, USA.) using a nonlinear regression (sigmoidal dose–response)."}, "[4]": {"tested_on": "HT-29 human colon cancer cells", "format": "cell-based", "conditions": "24 h treatment in serum-free medium (0.068–150 µM), then 48 h in complete medium; alamarBlue fluorescence; mean ± SE, performed twice, four parallels", "experimental": "as §1, §2"}, "[5]": {"tested_on": "MCF-7 human breast cancer cells", "format": "cell-based", "conditions": "24 h treatment in serum-free medium (0.068–150 µM), then 48 h in complete medium; alamarBlue fluorescence; mean ± SE, performed twice, four parallels", "experimental": "as §1, §2"}, "[6]": {"assay": "rat liver lysosomal homogenate in 0.2 M NH4OAc buffer (pH 5)", "conditions": "37 °C, up to 24 h"}, "90% human plasma": {"assay": "90% human plasma", "conditions": "37 °C, up to 24 h"}}, "note": "“Also recorded” adds a separate entry of the source. Square brackets hold non-standard residues; d marks the D form. Peptide text beside a SMILES is read from it. * marks the point of attachment. Daunorubicin(13-NOCH2CO) = COc1cccc2c1C(=O)c1c(O)c3c(c(O)c1C2=O)C[C@@](O)(C(C)=NOCC(=O)*)C[C@@H]3O[C@H]1C[C@H](N)[C@H](O)[C@H](C)O1; pGlu = O=C1CC[C@@H](C(=O)O)N1; Butyryl = CCCC(=O)*", "data": [{"molecule": "somatostatin [reference compound]", "values": [{"measurement": "displacement of [125I]-GnRH-I-[6D-Trp] binding", "setting": "[1]", "result": "did not displace the radioligand"}]}, {"molecule": "bombesin", "values": [{"measurement": "displacement of triptorelin", "setting": "[2]", "result": "not able to displace triptorelin"}]}, {"molecule": "human growth hormone", "values": [{"measurement": "displacement of [125I]-GnRH-I-[6D-Trp] binding", "setting": "[1]", "result": "did not displace the radioligand"}]}, {"molecule": "CCCC(=O)NCCCC[C@H](NC(=O)[C@H](Cc1c[nH]c2ccccc12)NC(=O)[C@H](Cc1c[nH]cn1)NC(=O)[C@@H]1CCC(=O)N1)C(=O)N[C@@H](Cc1c[nH]cn1)C(=O)N[C@@H](CC(=O)O)C(=O)N[C@@H](Cc1c[nH]c2ccccc12)C(=O)N[C@@H](CCCCNC(=O)CON=C(C)[C@]1(O)Cc2c(O)c3c(c(O)c2[C@@H](O[C@H]2C[C@H](N)[C@H](O)[C@H](C)O2)C1)C(=O)c1c(OC)cccc1C3=O)C(=O)N1CCC[C@H]1C(=O)NCC", "note": "[compound 14] ([pGlu]HWK(Butyryl)HDWK(Daunorubicin(13-NOCH2CO))P-NHEt)", "values": [{"measurement": "IC50", "setting": "[3]", "result": "12.4 ± 2.3", "unit": "µM"}, {"measurement": "IC50", "setting": "[4]", "result": "17.84 ± 0.08", "unit": "µM"}, {"measurement": "IC50", "setting": "[5]", "result": "2.23 ± 0.4", "unit": "µM"}]}, {"molecule": "epidermal growth factor", "values": [{"measurement": "displacement of [125I]-GnRH-I-[6D-Trp] binding", "setting": "[1]", "result": "did not displace the radioligand"}]}, {"molecule": "somatostatin-14", "values": [{"measurement": "displacement of triptorelin", "setting": "[2]", "result": "not able to displace triptorelin"}]}, {"molecule": "<EHWK(Bu)HDWK(Dau=Aoa)PG-NH2", "values": [{"measurement": "cleaved bond", "setting": "[6]", "result": "Pro9-Gly10; also recorded: His2-Trp3; also recorded: Trp3-Lys(Bu)4; also recorded: Lys(Bu)4-His5, first_seen, 5 min; also recorded: His5-Asp6; also recorded: Asp6-Trp7; also recorded: Trp7-Lys(Dau=Aoa)8; also recorded: Lys(Dau=Aoa)8-Pro9"}, {"measurement": "not cleaved", "setting": "90% human plasma", "result": "stable for at least 24 h"}]}, {"molecule": "<E-D-Tic-K(Bu)HDWK(Dau=Aoa)PG-NH2", "values": [{"measurement": "cleaved bond", "setting": "[6]", "result": "Lys(Bu)4-His5; also recorded: His5-Asp6; also recorded: Asp6-Trp7; also recorded: Trp7-Lys(Dau=Aoa)8; also recorded: Lys(Dau=Aoa)8-Pro9; also recorded: Pro9-Gly10"}, {"measurement": "fragment found", "setting": "[6]", "result": "<E-D-Tic-K(Bu)HDWK(Dau=Aoa)-OH; also recorded: <E-D-Tic-K(Bu)HD-OH; also recorded: <E-D-Tic-K(Bu)H-OH; also recorded: H-K(Dau=Aoa)P-OH; also recorded: H-Lys(Dau=Aoa)-OH, 1 h"}, {"measurement": "not cleaved", "setting": "90% human plasma", "result": "stable for at least 24 h"}]}]}
